Test results reported in EPA's CvTdb concentration-time database.

Legend:
Assay in all cases: concentration in plasma after dosing
[1] = tested on: Rat; details: 2 h; dosed: Formamide; 10 mg/kg; iv; Male; F344
[2] = tested on: Rat; details: 2 h; dosed: Formamide; 10 mg/kg; iv; Male; F344; remark: listed apart in the source
[3] = tested on: Rat; details: dosed: Formamide, 10 mg/kg, iv, Female, F344
[4] = tested on: Rat; details: dosed: Formamide, 10 mg/kg, iv, Male, F344
[5] = tested on: Rat; details: dosed: Formamide, 10 mg/kg, iv, Male, F344; remark: listed apart in the source
[6] = tested on: Rat; details: 2 h; dosed: Formamide; 10 mg/kg; iv; Male; F344; remark: listed apart in the source
[7] = tested on: Rat; details: dosed: Formamide, 30 mg/kg, iv, Female, F344
[8] = tested on: Rat; details: dosed: Formamide, 10 mg/kg, iv, Male, F344; remark: listed apart in the source
[9] = tested on: Rat; details: dosed: Formamide, 10 mg/kg, iv, Male, F344; remark: listed apart in the source
[10] = tested on: Rat; details: 5 h; dosed: Formamide; 10 mg/kg; iv; Male; F344
[11] = tested on: Rat; details: dosed: Formamide, 10 mg/kg, iv, Female, F344; remark: listed apart in the source
[12] = tested on: Rat; details: dosed: Formamide, 30 mg/kg, iv, Female, F344; remark: listed apart in the source
[13] = tested on: Rat; details: dosed: Formamide, 10 mg/kg, iv, Male, F344; remark: listed apart in the source
[14] = tested on: Rat; details: dosed: Formamide, 10 mg/kg, iv, Male, F344; remark: listed apart in the source
[15] = tested on: Rat; details: dosed: Formamide, 10 mg/kg, iv, Male, F344; remark: listed apart in the source
[16] = tested on: Rat; details: dosed: Formamide, 10 mg/kg, iv, Male, F344; remark: listed apart in the source
[17] = tested on: Rat; details: 0.5 h; dosed: Formamide; 10 mg/kg; iv; Male; F344
[18] = tested on: Rat; details: 2 h; dosed: Formamide; 10 mg/kg; iv; Male; F344; remark: listed apart in the source
[19] = tested on: Rat; details: dosed: Formamide, 10 mg/kg, iv, Male, F344; remark: listed apart in the source
[20] = tested on: Rat; details: dosed: Formamide, 10 mg/kg, iv, Female, Harlan Sprague-Dawley
[21] = tested on: Rat; details: 0.5 h; dosed: Formamide; 30 mg/kg; iv; Female; F344
[22] = tested on: Rat; details: dosed: Formamide, 10 mg/kg, iv, Female, Harlan Sprague-Dawley; remark: listed apart in the source
[23] = tested on: Rat; details: 0.5 h; dosed: Formamide; 10 mg/kg; iv; Male; F344; remark: listed apart in the source
[24] = tested on: Rat; details: dosed: Formamide, 10 mg/kg, iv, Male, F344; remark: listed apart in the source
[25] = tested on: Rat; details: dosed: Formamide, 30 mg/kg, iv, Female, F344; remark: listed apart in the source
[26] = tested on: Rat; details: dosed: Formamide, 10 mg/kg, iv, Male, F344; remark: listed apart in the source
[27] = tested on: Rat; details: dosed: Formamide, 30 mg/kg, iv, Female, F344; remark: listed apart in the source
[28] = tested on: Rat; details: dosed: Formamide, iv
[29] = tested on: Rat; details: dosed: Formamide, 10 mg/kg, iv, Male, F344; remark: listed apart in the source
[30] = tested on: Rat; details: 0.5 h; dosed: Formamide; 10 mg/kg; iv; Female; Harlan Sprague-Dawley
[31] = tested on: Rat; details: dosed: Formamide, 30 mg/kg, iv, Female, F344; remark: listed apart in the source
[32] = tested on: Rat; details: 2 h; dosed: Formamide; 10 mg/kg; iv; Male; F344; remark: listed apart in the source
[33] = tested on: Rat; details: 3 h; dosed: Formamide; 10 mg/kg; iv; Male; F344
[34] = tested on: Rat; details: 5 h; dosed: Formamide; 10 mg/kg; iv; Male; F344; remark: listed apart in the source
[35] = tested on: Rat; details: 5 h; dosed: Formamide; 10 mg/kg; iv; Male; F344; remark: listed apart in the source
[36] = tested on: Rat; details: 0.5 h; dosed: Formamide; 10 mg/kg; iv; Female; Harlan Sprague-Dawley; remark: listed apart in the source
[37] = tested on: Rat; details: dosed: Formamide, 10 mg/kg, iv, Male, F344; remark: listed apart in the source
[38] = tested on: Rat; details: 5 h; dosed: Formamide; 10 mg/kg; iv; Male; F344; remark: listed apart in the source
[39] = tested on: Rat; details: dosed: Formamide, 30 mg/kg, iv, Female, F344; remark: listed apart in the source
[40] = tested on: Rat; details: dosed: Formamide, 10 mg/kg, iv, Male, F344; remark: listed apart in the source
[41] = tested on: Rat; details: dosed: Formamide, 10 mg/kg, iv, Male, F344; remark: listed apart in the source
[42] = tested on: Rat; details: dosed: Formamide, 10 mg/kg, iv, Male, F344; remark: listed apart in the source
[43] = tested on: Rat; details: dosed: Formamide, 10 mg/kg, iv, Male, F344; remark: listed apart in the source
[44] = tested on: Rat; details: dosed: Formamide, 10 mg/kg, iv, Male, F344; remark: listed apart in the source
[45] = tested on: Rat; details: dosed: Formamide, 30 mg/kg, iv, Female, F344; remark: listed apart in the source

NC=O [Formamide]
Details | concentration in plasma [ng/mL]
[1] | 12400
[2] | 13000
[6] | 12600
[10] | 13400
[17] | 11100
[18] | 14100
[21] | 39700
[23] | 13400
[30] | 11100
[32] | 12800
[33] | 12000
[34] | 13700
[35] | 10500
[36] | 13500
[38] | 9600

Details | concentration in plasma [ng/mL]
[3], 10 min | 8500
[3], 18 h | 2900
[4], 0.25 h | 6900
[4], 24 h | 2900
[5], 5 min | 12900
[5], 36 h | 2200
[7], 0.5 h | 44700
[7], 48 h | 1600
[8], 0.25 h | 13300
[8], 24 h | 3900
[9], 1 h | 12700
[9], 3 h | 12800
[11], 10 min | 12500
[11], 18 h | 3300
[12], 0.25 h | 17600
[12], 24 h | 7700
[13], 8 h | 7100
[13], 12 h | 5600
[14], 5 min | 2100
[14], 36 h | 2100
[15], 1 h | 13400
[15], 3 h | 11700
[16], 5 min | 11900
[16], 36 h | 2000
[19], 8 h | 9200
[19], 12 h | 6700
[20], 0.25 h | 14700
[20], 24 h | 2900
[22], 0.25 h | 13000
[22], 24 h | 2100
[24], 1 h | 13500
[24], 3 h | 13300
[25], 5 min | 39500
[25], 36 h | 3400
[26], 1 h | 14500
[26], 3 h | 12400
[27], 8 h | 26800
[27], 12 h | 22600
[29], 8 h | 5700
[29], 12 h | 6800
[31], 0.25 h | 16100
[31], 24 h | 10100
[37], 10 min | 15400
[37], 18 h | 4700
[39], 8 h | 27500
[39], 12 h | 22800
[40], 5 min | 11200
[40], 36 h | 1400
[41], 8 h | 8600
[41], 12 h | 5100
[42], 5 min | 13700
[42], 36 h | 3100
[43], 8 h | 8000
[43], 12 h | 6700
[44], 10 min | 10700
[44], 18 h | 2900
[45], 5 min | 43900
[45], 36 h | 2500

concentration in plasma [ng/mL], [28]
Details | Female | Male
0.25 h, 10 mg/kg, F344 | – | 7100
0.25 h, 10 mg/kg, Harlan Sprague-Dawley | 13600 | –
0.25 h, 30 mg/kg, F344 | 37100 | –
0.5 h, 10 mg/kg, F344 | – | 14100
0.5 h, 10 mg/kg, Harlan Sprague-Dawley | 9300 | –
0.5 h, 30 mg/kg, F344 | 28200 | –
1 h, 10 mg/kg, F344 | – | 14700
2 h, 10 mg/kg, F344 | – | 12500
3 h, 10 mg/kg, F344 | – | 13700
5 h, 10 mg/kg, F344 | – | 14200
5 h, 10 mg/kg, Harlan Sprague-Dawley | 13000 | –
5 min, 10 mg/kg, F344 | – | 11800
5 min, 30 mg/kg, F344 | 46500 | –
8 h, 10 mg/kg, F344 | – | 8200
8 h, 30 mg/kg, F344 | 25000 | –
10 min, 10 mg/kg, F344 | 3500 | 14200
12 h, 10 mg/kg, F344 | – | 6300
12 h, 30 mg/kg, F344 | 21400 | –
18 h, 10 mg/kg, F344 | 3400 | 4000
24 h, 10 mg/kg, F344 | – | 3800
24 h, 10 mg/kg, Harlan Sprague-Dawley | 2300 | –
24 h, 30 mg/kg, F344 | 7900 | –
36 h, 10 mg/kg, F344 | – | 2300
36 h, 30 mg/kg, F344 | 4300 | –
48 h, 30 mg/kg, F344 | 1200 | –
